Measured values taken from ChEMBL document CHEMBL3879911, “Heteroaryl compounds useful as inhibitors of E1 activating enzymes” (2008).

Target: T1, NEDD8 activating enzyme (Homo sapiens, UniProt Q8TBC4)
T1 sequence (Q8TBC4 whole entry): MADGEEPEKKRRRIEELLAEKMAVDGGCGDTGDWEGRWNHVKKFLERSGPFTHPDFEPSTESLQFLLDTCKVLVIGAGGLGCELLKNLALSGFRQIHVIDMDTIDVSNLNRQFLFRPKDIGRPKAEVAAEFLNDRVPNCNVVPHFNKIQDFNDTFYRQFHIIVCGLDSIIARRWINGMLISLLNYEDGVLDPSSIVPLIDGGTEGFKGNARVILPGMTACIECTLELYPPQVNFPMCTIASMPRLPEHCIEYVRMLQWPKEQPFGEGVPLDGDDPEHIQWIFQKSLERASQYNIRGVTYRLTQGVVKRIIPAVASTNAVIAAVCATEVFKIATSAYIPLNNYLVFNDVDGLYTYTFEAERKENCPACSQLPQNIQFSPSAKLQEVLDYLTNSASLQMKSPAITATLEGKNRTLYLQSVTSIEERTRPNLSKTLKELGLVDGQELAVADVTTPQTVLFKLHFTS
T1 sequence (Q13564 whole entry): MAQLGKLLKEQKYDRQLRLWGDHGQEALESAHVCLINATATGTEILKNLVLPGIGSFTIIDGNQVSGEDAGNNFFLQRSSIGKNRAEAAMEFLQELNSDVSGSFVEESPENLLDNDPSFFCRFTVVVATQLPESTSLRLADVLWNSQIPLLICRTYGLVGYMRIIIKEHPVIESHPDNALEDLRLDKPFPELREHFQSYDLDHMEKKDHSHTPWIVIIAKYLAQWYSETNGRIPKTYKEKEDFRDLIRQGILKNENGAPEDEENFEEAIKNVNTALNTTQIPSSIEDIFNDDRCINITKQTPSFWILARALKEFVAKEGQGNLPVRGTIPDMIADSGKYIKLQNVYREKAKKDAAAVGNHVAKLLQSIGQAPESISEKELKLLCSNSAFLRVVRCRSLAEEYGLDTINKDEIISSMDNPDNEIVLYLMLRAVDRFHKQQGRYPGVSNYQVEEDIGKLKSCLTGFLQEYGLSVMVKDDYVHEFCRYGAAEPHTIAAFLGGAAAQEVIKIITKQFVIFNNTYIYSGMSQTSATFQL
Test: Inhibition of recombinant human NAEalpha/N-terminal His-tagged NAEbeta expressed in baculovirus infected insect Sf9 cells using N-terminal FLAG tagged Nedd8 as substrate incubated for 105 mins in presence of N-terminal GST-tagged Ubc12 by FRET assay

First: Cc1nc(N)cc(N[C@@H]2C[C@H](COS(N)(=O)=O)[C@@H](O)[C@H]2O)n1
Second: NS(=O)(=O)OC[C@H]1C[C@@H](Nc2ncnc3[nH]cnc23)[C@H](O)[C@@H]1O
The IC50 of the first is higher: > 10000 nM for the first, ≤ 500 nM for the second. The second is the more potent here.

`NS(=O)(=O)OC[C@H]1C[C@@H](Nc2cc(N[C@H]3CCc4cc(F)c(F)cc43)ncn2)[C@H](O)[C@@H]1O` and `CC1(C)C[C@H](Nc2cc(N[C@@H]3C[C@@H](COS(N)(=O)=O)[C@@H](O)C3)ncn2)c2ccccc21` cannot be ordered by IC50: ≤ 500 nM for the first, ≤ 500 nM for the second.

For `NS(=O)(=O)OC[C@@H]1C[C@@H](Oc2ncnc3nc(-c4c[nH]c5ccccc45)[nH]c23)C[C@@H]1O`, the IC50 was ≤ 500 nM.
